Assay results reported in patent publication US10710978B2, “STK4 inhibitors for treatment of hematologic malignancies” (Dana-Farber Cancer Institute, Inc., priority 2015, dated 2020).
pIC50: −log10 of the molar value.

How the values were obtained:
[1] = molecular target: CLK4 (Homo sapiens (Human), UniProt Q9HAZ1); assay: Ambit KINOSCAN assay; format: binding; conditions: read-out: percent control (%) at 1 uM
Description: (§1) Kinase Selectivity Studies
(§2) To directly test the kinase selectivity of a compound of the present application over other human protein kinases, the compounds were tested in an Ambit KINOSCAN assay. Ambit KINOSCAN assay is an ATP site dependent competition assay. T7 kinase-tagged phage strains were grown in parallel in 24- or 96-well blocks in an E. coli host derived from the BL21 strain. E. Coli were grown to log phase and infected with T7 phage from a frozen stock and incubated with shaking at about 32° C. until lysis (˜90 min). The lysates were centrifuged (6,000 g) and filtered ([…]) to remove cell debris. […] The liganded beads were blocked with excess biotin and washed with blocking buffer (Seablock (Pierce), 1% BSA, 0.05% Tween 20, 1 mM DTT) to remove unbound ligand and to reduce non-specific phage binding. Binding reactions were assembled by combining phage lysates, liganded affinity beads, and test compounds (i.e., compounds of the present application) in 1× binding buffer (20% SeaBlock, 0.17×PBS, 0.05% Tween […]). Test compounds were prepared 1000× stocks in DMSO and rapidly diluted into the aqueous environment (0.1% DMSO final). DMSO (0.1%) was used as a control. All reactions were carried out in polystyrene 96-well plates that had been pre-treated with blocking buffer in a final volume of 0.1 ml. […] The phage titer in the eluates was measured by standard plaque assays or quantitative PCR. Binding data were fit to the equation […]), where L is the lower baseline, H is the upper baseline, Kd(test) is the biding constant for the interaction between the test compound and the kinase, and [test] is the free test compound concentration. Binding constants are measured in duplicate on the same day of testing. For more details on the Ambit KINOSCAN assay see Fabian, M. A., et al. “A Small Molecule-Kinase Interaction Map for Clinical Kinase Inhibitors” Nat. Biotechol. 23(3), 2005, 329-336. (Also see Davis, M. I., et al. “Comprehensive analysis of kinase inhibitor selectivity.” Nat. Biotechnol. 29(11), 2011, 1046-1051)

[2] = molecular target: CSNK1A1L (Homo sapiens (Human), UniProt Q8N752); assay: Ambit KINOSCAN assay; format: binding; conditions: read-out: percent control (%) at 1 uM
Description: as §1, §2

[3] = molecular target: BMPR1B (Homo sapiens (Human), UniProt O00238); assay: Ambit KINOSCAN assay; format: binding; conditions: read-out: percent control (%) at 1 uM
BMPR1B, sequence (O00238 14-502): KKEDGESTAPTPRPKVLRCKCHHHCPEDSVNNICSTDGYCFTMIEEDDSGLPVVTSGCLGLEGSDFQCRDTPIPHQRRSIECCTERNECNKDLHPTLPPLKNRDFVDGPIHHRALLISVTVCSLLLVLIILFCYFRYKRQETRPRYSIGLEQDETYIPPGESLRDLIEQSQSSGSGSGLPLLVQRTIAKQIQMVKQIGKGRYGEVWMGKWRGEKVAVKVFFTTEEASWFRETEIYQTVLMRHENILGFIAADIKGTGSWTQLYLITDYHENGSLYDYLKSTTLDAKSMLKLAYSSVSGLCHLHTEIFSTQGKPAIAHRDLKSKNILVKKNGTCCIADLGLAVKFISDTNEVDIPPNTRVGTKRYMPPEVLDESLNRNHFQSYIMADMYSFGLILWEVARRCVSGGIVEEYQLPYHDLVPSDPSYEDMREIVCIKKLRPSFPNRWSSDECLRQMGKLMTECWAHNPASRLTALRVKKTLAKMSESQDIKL
Description: as §1, §2

[4] = molecular target: MST2 (Homo sapiens (Human), UniProt Q13188); assay: Ambit KINOSCAN assay; format: binding
MST2, sequence (Q13188 whole entry): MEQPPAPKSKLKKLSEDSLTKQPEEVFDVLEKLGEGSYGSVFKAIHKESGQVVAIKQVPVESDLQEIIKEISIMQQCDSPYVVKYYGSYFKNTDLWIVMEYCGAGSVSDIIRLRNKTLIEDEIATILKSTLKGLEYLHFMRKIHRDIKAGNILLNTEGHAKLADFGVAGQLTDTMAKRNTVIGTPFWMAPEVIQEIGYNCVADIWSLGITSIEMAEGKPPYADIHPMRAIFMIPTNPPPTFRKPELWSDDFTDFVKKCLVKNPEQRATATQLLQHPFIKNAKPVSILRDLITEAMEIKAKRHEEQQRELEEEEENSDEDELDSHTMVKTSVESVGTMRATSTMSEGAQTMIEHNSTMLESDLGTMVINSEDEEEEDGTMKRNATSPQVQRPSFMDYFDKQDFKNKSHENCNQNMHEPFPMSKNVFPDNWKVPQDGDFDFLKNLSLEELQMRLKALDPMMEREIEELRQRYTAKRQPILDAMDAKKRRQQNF
Description: as §1, §2

[5] = molecular target: VRK2 (Homo sapiens (Human), UniProt Q86Y07); assay: Ambit KINOSCAN assay; format: binding; conditions: read-out: percent control (%) at 1 uM
VRK2, sequence (Q86Y07 whole entry): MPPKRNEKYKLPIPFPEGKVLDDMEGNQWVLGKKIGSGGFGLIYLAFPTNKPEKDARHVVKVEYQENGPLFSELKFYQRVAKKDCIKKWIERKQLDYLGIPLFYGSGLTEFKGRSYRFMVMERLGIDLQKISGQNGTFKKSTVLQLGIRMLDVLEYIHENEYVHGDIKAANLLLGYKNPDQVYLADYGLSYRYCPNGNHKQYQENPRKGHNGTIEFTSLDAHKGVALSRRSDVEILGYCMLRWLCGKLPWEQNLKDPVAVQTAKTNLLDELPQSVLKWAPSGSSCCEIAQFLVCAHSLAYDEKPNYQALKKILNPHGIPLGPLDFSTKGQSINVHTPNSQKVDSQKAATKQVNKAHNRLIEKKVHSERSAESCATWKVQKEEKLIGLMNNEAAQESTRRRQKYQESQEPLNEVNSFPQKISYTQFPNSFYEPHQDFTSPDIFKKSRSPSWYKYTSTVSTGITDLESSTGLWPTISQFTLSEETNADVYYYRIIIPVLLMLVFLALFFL
Description: as §1, §2

[6] = molecular target: CSNK1A1 (Homo sapiens (Human), UniProt P48729); assay: Ambit KINOSCAN assay; format: binding; conditions: read-out: percent control (%) at 1 uM
Description: as §1, §2

[7] = molecular target: CSNK1E (Homo sapiens (Human), UniProt P49674); assay: Ambit KINOSCAN assay; format: binding
CSNK1E, sequence (P49674 whole entry): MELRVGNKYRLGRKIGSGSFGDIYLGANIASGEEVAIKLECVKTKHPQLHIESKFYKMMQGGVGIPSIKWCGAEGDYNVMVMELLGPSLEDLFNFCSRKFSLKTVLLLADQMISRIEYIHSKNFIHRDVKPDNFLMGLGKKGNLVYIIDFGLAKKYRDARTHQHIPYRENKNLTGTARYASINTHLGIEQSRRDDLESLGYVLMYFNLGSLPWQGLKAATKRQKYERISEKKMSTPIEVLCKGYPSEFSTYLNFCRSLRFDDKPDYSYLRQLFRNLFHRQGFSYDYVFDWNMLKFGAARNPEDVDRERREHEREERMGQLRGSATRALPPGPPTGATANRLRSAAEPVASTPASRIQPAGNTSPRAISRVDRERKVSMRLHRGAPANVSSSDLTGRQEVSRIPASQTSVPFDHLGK
Description: as §1, §2

[8] = molecular target: CLK2 (Homo sapiens (Human), UniProt P49760); assay: Ambit KINOSCAN assay; format: binding; conditions: read-out: percent control (%) at 1 uM
Description: as §1, §2

[9] = molecular target: DYRK1A (Homo sapiens (Human), UniProt Q13627); assay: Ambit KINOSCAN assay; format: binding; conditions: read-out: percent control (%) at 1 uM
Description: as §1, §2

[10] = molecular target: DYRK2 (Homo sapiens (Human), UniProt Q92630); assay: Ambit KINOSCAN assay; format: binding; conditions: read-out: percent control (%) at 1 uM
Description: as §1, §2

[11] = molecular target: DYRK1B (Homo sapiens (Human), UniProt Q9Y463); assay: Ambit KINOSCAN assay; format: binding; conditions: read-out: percent control (%) at 1 uM
Description: as §1, §2

[12] = molecular target: CSNK1G2 (Homo sapiens (Human), UniProt P78368); assay: Ambit KINOSCAN assay; format: binding; conditions: read-out: percent control (%) at 1 uM
CSNK1G2, sequence (P78368 whole entry): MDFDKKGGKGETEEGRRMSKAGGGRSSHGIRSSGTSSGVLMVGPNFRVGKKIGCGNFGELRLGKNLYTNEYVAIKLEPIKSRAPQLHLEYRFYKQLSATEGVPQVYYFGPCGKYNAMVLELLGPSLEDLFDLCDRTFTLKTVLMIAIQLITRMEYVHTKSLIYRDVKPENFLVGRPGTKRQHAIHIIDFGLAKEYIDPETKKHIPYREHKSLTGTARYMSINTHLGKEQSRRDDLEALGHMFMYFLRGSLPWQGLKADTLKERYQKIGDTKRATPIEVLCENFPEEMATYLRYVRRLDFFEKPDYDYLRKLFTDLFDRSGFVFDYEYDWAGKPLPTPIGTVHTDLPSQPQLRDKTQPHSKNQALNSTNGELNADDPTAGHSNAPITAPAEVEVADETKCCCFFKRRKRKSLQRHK
Description: as §1, §2

[13] = molecular target: CIT (Homo sapiens (Human), UniProt O14578); assay: Ambit KINOSCAN assay; format: binding; conditions: read-out: percent control (%) at 1 uM
CIT, sequence (O14578 whole entry): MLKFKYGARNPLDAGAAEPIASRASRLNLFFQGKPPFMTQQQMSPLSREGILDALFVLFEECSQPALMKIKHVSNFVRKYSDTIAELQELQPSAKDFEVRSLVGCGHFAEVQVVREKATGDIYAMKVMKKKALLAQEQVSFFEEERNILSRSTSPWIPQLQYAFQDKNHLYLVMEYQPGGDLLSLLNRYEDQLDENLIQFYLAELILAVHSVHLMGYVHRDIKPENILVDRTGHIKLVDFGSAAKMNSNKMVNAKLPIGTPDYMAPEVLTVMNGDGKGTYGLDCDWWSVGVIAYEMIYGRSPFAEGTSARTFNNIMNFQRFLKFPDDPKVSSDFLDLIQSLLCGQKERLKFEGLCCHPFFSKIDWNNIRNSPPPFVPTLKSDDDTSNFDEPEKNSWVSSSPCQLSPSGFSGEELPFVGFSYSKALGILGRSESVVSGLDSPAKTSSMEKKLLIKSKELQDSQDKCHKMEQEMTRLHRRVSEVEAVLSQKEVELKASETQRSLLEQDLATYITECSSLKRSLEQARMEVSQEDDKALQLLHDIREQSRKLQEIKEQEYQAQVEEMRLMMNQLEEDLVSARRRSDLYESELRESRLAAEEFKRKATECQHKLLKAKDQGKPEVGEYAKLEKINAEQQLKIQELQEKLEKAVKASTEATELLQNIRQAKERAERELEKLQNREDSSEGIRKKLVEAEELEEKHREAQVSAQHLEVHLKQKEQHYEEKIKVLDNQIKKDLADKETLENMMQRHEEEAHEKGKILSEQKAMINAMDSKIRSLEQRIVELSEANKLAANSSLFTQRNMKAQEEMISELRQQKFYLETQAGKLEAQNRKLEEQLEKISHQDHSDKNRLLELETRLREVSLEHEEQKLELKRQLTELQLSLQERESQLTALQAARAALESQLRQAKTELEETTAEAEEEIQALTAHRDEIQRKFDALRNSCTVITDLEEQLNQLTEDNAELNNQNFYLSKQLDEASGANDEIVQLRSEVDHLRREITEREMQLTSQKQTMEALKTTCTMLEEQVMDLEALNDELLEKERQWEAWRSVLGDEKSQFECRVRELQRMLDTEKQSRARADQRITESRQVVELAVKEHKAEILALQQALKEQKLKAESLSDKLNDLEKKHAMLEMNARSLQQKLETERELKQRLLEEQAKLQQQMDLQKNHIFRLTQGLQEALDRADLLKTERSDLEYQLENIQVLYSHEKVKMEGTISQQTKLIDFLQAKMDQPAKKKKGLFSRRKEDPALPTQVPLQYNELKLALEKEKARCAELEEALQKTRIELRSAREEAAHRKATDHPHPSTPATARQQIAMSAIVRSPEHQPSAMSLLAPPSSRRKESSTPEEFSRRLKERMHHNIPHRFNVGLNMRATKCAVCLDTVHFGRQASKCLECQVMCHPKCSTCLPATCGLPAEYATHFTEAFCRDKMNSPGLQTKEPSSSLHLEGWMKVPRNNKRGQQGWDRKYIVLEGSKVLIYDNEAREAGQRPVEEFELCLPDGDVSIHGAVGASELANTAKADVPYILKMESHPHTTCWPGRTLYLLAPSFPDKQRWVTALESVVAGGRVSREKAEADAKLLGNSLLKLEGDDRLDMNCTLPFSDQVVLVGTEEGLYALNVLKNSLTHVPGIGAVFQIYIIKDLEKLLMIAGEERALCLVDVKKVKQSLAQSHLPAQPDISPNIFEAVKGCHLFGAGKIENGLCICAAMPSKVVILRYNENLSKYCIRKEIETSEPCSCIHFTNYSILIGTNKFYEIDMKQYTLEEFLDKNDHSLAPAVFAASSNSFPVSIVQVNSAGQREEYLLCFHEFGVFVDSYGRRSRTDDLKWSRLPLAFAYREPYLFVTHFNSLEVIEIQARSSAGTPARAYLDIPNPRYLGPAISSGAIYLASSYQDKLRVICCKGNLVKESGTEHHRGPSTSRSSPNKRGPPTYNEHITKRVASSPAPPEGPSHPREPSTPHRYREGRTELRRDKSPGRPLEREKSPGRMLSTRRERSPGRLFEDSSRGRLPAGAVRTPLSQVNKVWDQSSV
Description: as §1, §2

[14] = molecular target: IRAK1 (Homo sapiens (Human), UniProt P51617); assay: Ambit KINOSCAN assay; format: binding
IRAK1, sequence (P51617 whole entry): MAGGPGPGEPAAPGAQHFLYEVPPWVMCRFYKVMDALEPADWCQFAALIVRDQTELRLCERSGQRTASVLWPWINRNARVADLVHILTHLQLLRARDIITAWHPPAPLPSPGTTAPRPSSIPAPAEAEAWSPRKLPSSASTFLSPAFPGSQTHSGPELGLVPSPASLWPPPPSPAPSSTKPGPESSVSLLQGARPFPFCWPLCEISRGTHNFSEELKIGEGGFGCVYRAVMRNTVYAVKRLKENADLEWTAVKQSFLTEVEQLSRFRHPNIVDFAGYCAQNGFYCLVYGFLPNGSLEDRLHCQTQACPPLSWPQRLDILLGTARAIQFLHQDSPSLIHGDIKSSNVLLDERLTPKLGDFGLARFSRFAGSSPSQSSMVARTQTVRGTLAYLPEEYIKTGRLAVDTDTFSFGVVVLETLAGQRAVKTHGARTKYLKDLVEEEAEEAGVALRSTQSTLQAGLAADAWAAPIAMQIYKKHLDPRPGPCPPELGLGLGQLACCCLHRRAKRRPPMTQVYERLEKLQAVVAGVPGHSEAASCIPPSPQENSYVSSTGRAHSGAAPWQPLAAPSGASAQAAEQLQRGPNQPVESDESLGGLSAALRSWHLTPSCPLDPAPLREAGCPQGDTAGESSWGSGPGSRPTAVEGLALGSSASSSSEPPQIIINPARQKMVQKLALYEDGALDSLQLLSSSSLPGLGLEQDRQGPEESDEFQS
Description: as §1, §2

[15] = molecular target: GSK3A (Homo sapiens (Human), UniProt P49840); assay: Ambit KINOSCAN assay; format: binding; conditions: read-out: percent control (%) at 1 uM
Description: as §1, §2

[16] = molecular target: CSNK1G1 (Homo sapiens (Human), UniProt Q9HCP0); assay: Ambit KINOSCAN assay; format: binding; conditions: read-out: percent control (%) at 1 uM
Description: as §1, §2

[17] = molecular target: MST4 (Homo sapiens (Human), UniProt Q9P289); assay: Z-lyte biochemical IC50 assay (Invitrogen); conditions: ATP concentration matched the Km
[18] = read-out: percent control (%) at 1 uM

remaining binding at 1 µM [1]: 2.6%
remaining binding at 1 µM [2]: 1.7%
remaining binding at 1 µM [3]: 0.75%
pIC50 ([4]; Kinase Selectivity Data, MST2): 7.37
remaining binding at 1 µM [4, 18]: 1.2%
remaining binding at 1 µM [5]: 2.4%
remaining binding at 1 µM [6]: 3.7%
pIC50 ([7]; Kinase Selectivity Data, CSNK1E): 6.70
remaining binding at 1 µM [7, 18]: 0.1%
remaining binding at 1 µM [8]: 5%
remaining binding at 1 µM [9]: 0%
remaining binding at 1 µM [10]: 3%
remaining binding at 1 µM [11]: 0.75%
remaining binding at 1 µM [12]: 4%
remaining binding at 1 µM [13]: 0.05%
pIC50 ([14]; Kinase Selectivity Data, IRAK1): 6.96
remaining binding at 1 µM [14, 18]: 2.8%
remaining binding at 1 µM [15]: 0%
remaining binding at 1 µM [16]: 4.6%
pIC50 [17]: < 6.05
SMILES: Nc1ncc(-c2cc([N+](=O)[O-])ccc2F)cc1-c1ccc2c(c1)CCNC2=O [Compound I-1, 6-(2-amino-5-(2-fluoro-5-nitrophenyl)pyridin-3-yl)-3,4-dihydroisoquinolin-1(2H)-one]
